Earlier results on one molecule are cited in US12121516B2, “Pharmaceutical composition comprising selexipag” (ACTELION PHARMACEUTICALS LTD, priority 2017, dated 2024).

Series [1] relates to healthy subjects. Conditions: administered orally or by i.v. infusion.
The test system of series [2] is patients with pulmonary arterial hypertension. The conditions noted are these: phase III, versus placebo.

Turning to `CC(C)N(CCCCOCC(=O)NS(C)(=O)=O)c1cnc(-c2ccccc2)c(-c2ccccc2)n1` [selexipag, 2-{4-[N-(5,6-diphenylpyrazin-2-yl)-N-isopropylamino]butyloxy}-N-(methylsulfonyl)acetamide], the tolerability entry in series [1] is on record as “generally well tolerated”. In series [2], the “risk of the primary composite end point of death or a complication related to pulmonary arterial hypertension” value is listed as “significantly lower”.
